{
  "source": "patent US20260263505A1",
  "about": "“Uses of Compositions Comprising a Prebiotic Component” (Mead Johnson Nutrition Company, priority 2021, published 2026)",
  "test_system": "male Sprague Dawley rats",
  "test": "Telemetric sleep/wake recording at baseline and after inescapable tail shock stress, following early life diet (P21-P51)",
  "assay_type": "in vivo, rat",
  "settings": "mean ± SEM",
  "text": "The aim of this study was to investigate the extent to which early life dietary oligosaccharides and/or polydextrose (PDX+GOS) modulate sleep and protect sleep architecture following stress.\nTimed-pregnant female Sprague Dawley rats were purchased from Charles River Laboratories International, Inc., (Hollister, CA and Canada). Male pups were weaned at postnatal day 21 (P21) and randomised into one of five treatment groups (see Table 6 below). All rats were housed in a temperature-controlled recording room under a 12 hour light: dark cycle with food and water available ad libitum. Environmental conditions were regulated, and room temperature (24±2° C.), humidity (50±20% relative humidity), and lighting were monitored and recorded. Animals were inspected daily.\nAll experimenters were blind to type of diet administered to each group. The diets were formulated by Mead Johnson Nutrition (MJN, Evansville IN) based on AlN-93G specifications to be isocaloric and have similar carbohydrate, protein, fat, vitamin and mineral levels. Experimental diets contained 7.0 g/kg galactooligosaccharides (GOS), 7.0 g/kg polydextrose (PDX) and/or 2.2 g/kg sialyllactose (SL). Diets were produced by Envigo (Indianapolis, IN), and ingredients were supplied by: PDX (Danisco, Terre Haute, IN), GOS (Friesland Campina, Zwolle, The Netherlands) and SL (SAL-10; Arla Foods Ingredients, Aarhus, Denmark).\nA total of n=105 male Sprague Dawley rats were used in this study with a subset of animals (n=40) used for sleep/wake analysis. Upon weaning (P21), rats were randomised into one of five treatment groups, based upon diet and exposure to a stressor, as follows:\nThe experimental protocol consisted of two phases a diet manipulation phase and a sleep-stressor phase. During the diet manipulation phase, rat weanlings were randomised to either the control diet or one of the three formulated diets. Rats were provided these diets from age P21 to P51, after which all animals were given standard chow. During this diet-manipulation phase, body weights were recorded twice per week and food consumption determined for weekly intervals.\nThe second phase of the protocol consisted of telemetric recordings, exposure to stressor, and behavioural assessment. Telemeters were implanted on P64 and undisturbed baseline recordings obtained on P84.\nRats in groups 2 to 5 were exposed to inescapable shock stress (uncontrollable stress paradigm) on P85 using previously published protocols (Greenwood et al., Behav Brain Res. 2012 Aug. 1; 233(2): 314-321). Briefly, rats were restrained in Plexiglass tubes and received ~100, 5 s tail shocks (1.5 mA) on a […] variable-interval schedule. Stress protocols were conducted during the beginning of the light period. After the end of the stress protocol, rats were returned to their home cages. Home-cage control animals (no stress) remained undisturbed during this period.",
  "key": {"[1]": {"settings": "Dark period (ZT13-24), Baseline"}, "[2]": {"settings": "Dark period (ZT13-24), Post-stress"}, "[3]": {"settings": "Light period (ZT5-12), Baseline"}, "[4]": {"settings": "Light period (ZT5-12), Post-stress"}},
  "data": [
    {"substance": "sialyllactose [SL]", "values": [
      {"measurement": "NREMS bout duration", "setting": "[1]", "result": "1.3 ± 0.1", "unit": "min"},
      {"measurement": "NREMS bouts", "setting": "[1]", "result": "11.9 ± 1.1", "unit": "number/h"},
      {"measurement": "NREMS duration", "setting": "[1]", "result": "30.1 ± 3.0", "unit": "% recording time"},
      {"measurement": "REMS bout duration", "setting": "[1]", "result": "0.9 ± 0.1", "unit": "min"},
      {"measurement": "REMS bouts", "setting": "[1]", "result": "2.8 ± 0.4", "unit": "number/h"},
      {"measurement": "REMS duration", "setting": "[1]", "result": "6.0 ± 0.9", "unit": "% recording time"},
      {"measurement": "Wake bout duration", "setting": "[1]", "result": "10.9 ± 2.2", "unit": "min"},
      {"measurement": "Wake bouts", "setting": "[1]", "result": "8.3 ± 0.6", "unit": "number/h"},
      {"measurement": "Wake duration", "setting": "[1]", "result": "63.9 ± 3.8", "unit": "% recording time"},
      {"measurement": "NREMS bout duration", "setting": "[2]", "result": "1.5 ± 0.1", "unit": "min"},
      {"measurement": "NREMS bouts", "setting": "[2]", "result": "17.7 ± 1.3", "unit": "number/h"},
      {"measurement": "NREMS duration", "setting": "[2]", "result": "[43.7 ± 1.7**] % recording time"},
      {"measurement": "REMS bout duration", "setting": "[2]", "result": "[1.3 ± 0.1*] min"},
      {"measurement": "REMS bouts", "setting": "[2]", "result": "[5.5 ± 0.5**] number/h"},
      {"measurement": "REMS duration", "setting": "[2]", "result": "[12.3 ± 1.0**] % recording time"},
      {"measurement": "Wake bout duration", "setting": "[2]", "result": "4.1 ± 0.8", "unit": "min"},
      {"measurement": "Wake bouts", "setting": "[2]", "result": "10.4 ± 1.1", "unit": "number/h"},
      {"measurement": "Wake duration", "setting": "[2]", "result": "[43.9 ± 2.4**] % recording time"},
      {"measurement": "NREMS bout duration", "setting": "[3]", "result": "1.5 ± 0.1", "unit": "min"},
      {"measurement": "NREMS bouts", "setting": "[3]", "result": "20.1 ± 1.5", "unit": "number/h"},
      {"measurement": "NREMS duration", "setting": "[3]", "result": "51.0 ± 3.1", "unit": "% recording time"},
      {"measurement": "REMS bout duration", "setting": "[3]", "result": "1.2 ± 0.1", "unit": "min"},
      {"measurement": "REMS bouts", "setting": "[3]", "result": "5.3 ± 0.6", "unit": "number/h"},
      {"measurement": "REMS duration", "setting": "[3]", "result": "12.6 ± 1.3", "unit": "% recording time"},
      {"measurement": "Wake bout duration", "setting": "[3]", "result": "3.5 ± 1.1", "unit": "min"},
      {"measurement": "Wake bouts", "setting": "[3]", "result": "10.1 ± 0.6", "unit": "number/h"},
      {"measurement": "Wake duration", "setting": "[3]", "result": "36.4 ± 4.2", "unit": "% recording time"},
      {"measurement": "NREMS bout duration", "setting": "[4]", "result": "2.1 ± 0.1", "unit": "min"},
      {"measurement": "NREMS bouts", "setting": "[4]", "result": "16.8 ± 1.1", "unit": "number/h"},
      {"measurement": "NREMS duration", "setting": "[4]", "result": "56.1 ± 2.1", "unit": "% recording time"},
      {"measurement": "REMS bout duration", "setting": "[4]", "result": "1.6 ± 0.0", "unit": "min"},
      {"measurement": "REMS bouts", "setting": "[4]", "result": "5.3 ± 0.7", "unit": "number/h"},
      {"measurement": "REMS duration", "setting": "[4]", "result": "14.4 ± 1.7", "unit": "% recording time"},
      {"measurement": "Wake bout duration", "setting": "[4]", "result": "3.0 ± 0.7", "unit": "min"},
      {"measurement": "Wake bouts", "setting": "[4]", "result": "7.8 ± 0.6", "unit": "number/h"},
      {"measurement": "Wake duration", "setting": "[4]", "result": "29.5 ± 3.5", "unit": "% recording time"}
    ]}
  ]
}
